Data taken from ChEMBL document CHEMBL1158925, “New proazulene guaianolides from Thapsia villosa” (J Nat Prod, 1990).
Calls of active or inactive are those of the source. No cut-off for these calls is given here.

Columns and labels:
[1] = Skin irritant activity in mouse ear at 10 ug after 24 hrs; assay type: ADME, tissue-based; settings: in vivo, topical_or_ocular
[2] = test system: Mast cell; assay: Induction of histamine release in rat peritoneal mast cells at 10 uM; assay type: functional, cell-based

For `C/C=C(/C)C(=O)O[C@H]1C(C)=C2[C@H]([C@@H]1OC(=O)CCCCCCC)[C@@](C)(OC(C)=O)C[C@H](OC(=O)CCC)[C@@]1(O)[C@H]2OC(=O)[C@@]1(C)O` [THAPSIGARGIN], which Activity [1] is on record?
The Activity was “Non-toxic”.

What about the Activity [2] of the same compound?
The Activity was “inactive”.

For `CC(=O)O[C@@H]1C=C(C)[C@H]2[C@@H]3OC(=O)[C@@](C)(OC(C)=O)[C@@H]3[C@@H](OC(=O)C=C(C)C)C[C@](C)(OC(C)=O)[C@H]21`, which Activity [1] is on record?
Its Activity is “Non-toxic”.

And the Activity [2]?
The Activity was “inactive”.

Which Activity [1] does the source give for `CCC(C)C(=O)O[C@H]1C[C@](C)(OC(C)=O)[C@@H]2[C@@H](C(C)=C[C@H]2O)[C@@H]2OC(=O)[C@@](C)(OC(C)=O)[C@@H]21` (stereo not given in full) here?
Its Activity is “Non-toxic”.

And the Activity [2]?
The Activity was “inactive”.

Which results are given for `CC(=O)O[C@@]1(C)C[C@H](OC(=O)C=C(C)C)[C@@H]2[C@@H](OC(=O)[C@@]2(C)OC(C)=O)[C@@H]2C(C)=C[C@@H](O)[C@@H]21`?
Activity [1]: Non-toxic; Activity [2]: inactive

With `CCC(C)C(=O)O[C@H]1C[C@](C)(OC(C)=O)[C@@H]2[C@@H](C(C)=C[C@H]2OC(C)=O)[C@@H]2OC(=O)[C@@](C)(OC(C)=O)[C@@H]21` (stereo not given in full) as the compound, how does the Activity [1] read?
Its Activity is “Non-toxic”.

What about the Activity [2] of the same compound?
Its Activity is “inactive”.
